# Reference: publication PMC4552745, “Novel Gallate Triphenylphosphonium Derivatives with Potent Antichagasic Activity” (PLoS ONE, 2015)
# Tests used:
# [1] = system: T. cruzi trypomastigotes (Y strain); type: cell-based; settings: for markers of cell death (phosphatidylserine exposure and propidium iodide permeabilization): 1 μM, 24 hours; for number of viable cells (without annexin-V or PI positivity): 24 hours, 0.1, 0.5 or 1 μM, Fig 2B
# Description: For these assays, 10^7 trypomastigotes (Y strain) were exposed to […] for 24 h in RPMI at 37°C and 5% CO2. The cells were then washed in phosphate-buffered saline (PBS), resuspended, and incubated with propidium iodide (PI) and Annexin-V labeled with Alexa Fluor 488. The incubation was performed using Alexa Fluor 488 Annexin V/Dead Cell Apoptosis Kit (Molecular Probes, USA) following the manufacturer’s instructions. The fluorescence of the samples was measured using a FACSAria-III flow cytometer (BD biosciences, USA) with 530/30 and 630/22 filters to detect Annexin-V and PI, respectively. For each sample, 5,000 events were recorded, and the data were analyzed using FACSDiva 6.1 software.
# [2] = system: T. cruzi in infected RAW 264.7 cells; experiment: Parasite DNA load by real-time PCR in infected RAW cells; type: cell-based, Trypanosoma cruzi; settings: for parasite's DNA load: 1 μM, qPCR, 48 hours; for parasite load (qPCR): infected RAW cells, 48 hours after treatment, Fig 4
# Excerpt: DNA from infected RAW cells (murine macrophages, ATCC number: TIB-71) was isolated using Wizard Genomic DNA Purification Kit (Promega, USA) following the manufacturer’s instructions. DNA was quantified through […] absorbance measurements using a Varioskan spectrophotometer (Thermo Scientific, USA). To evaluate the parasite DNA load, we used a TaqMan-Duplex system, as described previously. To amplify an 84-bp T. cruzi satellite DNA sequence, we used the following primers: TcSt 4-Fw (5’-[…]-3’) and TcSt 1-Rev (5’-[…]-3’) and the TcSt-1 probe (5’-FAM-[…]-BHQ-1-3’). As an endogenous control, we used the Mus-F (5’-[…]-3’) and Mus-R (5’-[…]-3’) primers coupled with the MM-1 probe (5’-HEX-AAAGCATCTGCCTCCG-BHQ-1-3’) to amplify a 67-bp Mus musculus GAPDH sequence. The primers and probes were designed using Primer Express 3.0 Software (Applied Biosystems, USA) and manufactured by Integrated DNA Technologies (Coralville, IA, USA). The PCR reactions were performed using an ABI7300 real-time thermocycler (Applied Biosystems, USA). […] ROX was used as a reference dye. For both TaqMan assays, the thermal cycle consisted of a polymerase activation step carried out at 95°C for 10 min (one cycle) and a two-step amplification phase: 95°C for 15 s and 55°C for 45 s (40 cycles). Fluorescence was measured at the end of each amplification cycle. The data were analyzed using 7300 System SDS software with the SDS relative quantitation plug-in (Applied Biosystems, USA). All of the data were analyzed by the 2^-∆∆CT method, comparing the CTs of the T. cruzi gene versus that of GAPDH as well as comparing all of the samples with the controls. The parasite load is expressed as the relative DNA load compared with the controls.
# mouse = system: mouse; set-up: method as in PMID 24568614; settings: 15 mg/kg; cited from earlier work
SMILES,markers of cell death (phosphatidylserine exposure and propidium iodide permeabilization) [1],number of viable cells (without annexin-V or PI positivity) [1],parasite's DNA load [2],parasite load (qPCR) [2],safety in mouse models (mouse)
"O=C(OCCCCCCCCCCCC[P+](c1ccccc1)(c1ccccc1)c1ccccc1)c1cc(O)c(O)c(O)c1.[Br-] [TPP^+-C12, triphenyl(12-((3,4,5-trihydroxybenzoyl)oxy)-dodecyl) phosphonium bromide]",induced markers of cell death,significant decrease in the number of viable cells at concentrations of 0.5 and 1 μM,13 % of control measurements,reduced the parasite load in a concentration-dependent manner,–
"O=C(OCCCCCCCCCC[P+](c1ccccc1)(c1ccccc1)c1ccccc1)c1cc(O)c(O)c(O)c1.[Br-] [TPP^+-C10, triphenyl(10-((3,4,5-trihydroxybenzoyl)oxy)-decyl) phosphonium bromide]",induced markers of cell death,significant decrease in the number of viable cells at concentrations of 0.5 and 1 μM,10 % of control measurements,reduced the parasite load in a concentration-dependent manner,safe
